From US10519152B2, “Compounds and their use in treating cancer” (AstraZeneca AB, priority 2017, dated 2019)

target: T1, recombinant human Estrogen Receptor alpha ligand binding domain, residues 307-554 (ER alpha-LBD (GST)) (Homo sapiens, UniProt P03372); assay: ERα binding assay (LanthaScreen TR-FRET competition); conditions: TR-FRET competition with Fluormone ES2 tracer, 4 hours at room temperature; single experiment or average of two or more
T1 construct: made in house
T1 sequence (P03372 307-554): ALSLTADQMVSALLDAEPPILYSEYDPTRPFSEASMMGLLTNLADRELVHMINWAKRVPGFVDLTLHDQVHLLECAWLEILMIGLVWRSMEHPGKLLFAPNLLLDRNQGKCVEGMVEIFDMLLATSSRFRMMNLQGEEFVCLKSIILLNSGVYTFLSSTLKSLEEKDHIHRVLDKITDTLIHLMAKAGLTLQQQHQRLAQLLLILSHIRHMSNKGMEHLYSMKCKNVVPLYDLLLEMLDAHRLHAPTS

Row | SMILES | IC50
1 | Cc1ncsc1-c1ccc(CNC(=O)[C@@H]2C[C@@H](O)CN2C(=O)[C@@H](NC(=O)COCC(F)(F)COCCCOc2cc(F)c([C@@H]3c4[nH]c5ccccc5c4C[C@@H](C)N3CC(C)(C)F)c(F)c2)C(C)(C)C)cc1 [Example 125, (2S,4R)-1-((S)-2-(2-(3-(3-(3,5-Difluoro-4-((1R,3R)-2-(2-fluoro-2-methylpropyl)-3-methyl-2,3,4,9-tetrahydro-1H-pyrido[3,4-b]indol-1-yl)phenoxy)propoxy)-2,2-difluoropropoxy)acetamido)-3,3-dimethylbutanoyl)-4-hydroxy-N-(4-(4-methylthiazol-5-yl)benzyl)pyrrolidine-2-carboxamide] | 1 nM
2 | Cc1ncsc1-c1ccc([C@H](C)NC(=O)[C@@H]2C[C@@H](O)CN2C(=O)[C@@H](NC(=O)C(F)(F)OCCOCCCCOc2cc(F)c([C@@H]3c4[nH]c5ccccc5c4C[C@@H](C)N3CC(C)(C)F)c(F)c2)C(C)(C)C)cc1 [Example 122, (2S,4R)-1-((S)-2-(2-(2-(4-(3,5-Difluoro-4-((1R,3R)-2-(2-fluoro-2-methylpropyl)-3-methyl-2,3,4,9-tetrahydro-1H-pyrido[3,4-b]indol-1-yl)phenoxy)butoxy)ethoxy)-2,2-difluoroacetamido)-3,3-dimethylbutanoyl)-4-hydroxy-N—((S)-1-(4-(4-methylthiazol-5-yl)phenyl)ethyl)pyrrolidine-2-carboxamide] | 1.5 nM
3 | Cc1ncsc1-c1ccc(CNC(=O)[C@@H]2C[C@@H](O)CN2C(=O)[C@@H](NC(=O)COCCOCCOCCOCCOc2cc(F)c([C@@H]3c4[nH]c5ccccc5c4C[C@@H](C)N3CC(C)(C)F)c(F)c2)C(C)(C)C)cc1 [Example 37, (2S,4R)-1-((S)-2-(tert-Butyl)-17-(3,5-difluoro-4-((1R,3R)-2-(2-fluoro-2-methylpropyl)-3-methyl-2,3,4,9-tetrahydro-1H-pyrido[3,4-b]indol-1-yl)phenoxy)-4-oxo-6,9,12,15-tetraoxa-3-azaheptadecanoyl)-4-hydroxy-N-(4-(4-methylthiazol-5-yl)benzyl)pyrrolidine-2-carboxamide] | 6.4 nM
4 | Cc1ncsc1-c1ccc(CNC(=O)[C@@H]2C[C@@H](O)CN2C(=O)[C@@H](NC(=O)COCCOc2ccc(COc3cc(F)c([C@@H]4c5[nH]c6ccccc6c5C[C@@H](C)N4CC(C)(C)F)c(F)c3)cc2)C(C)(C)C)cc1 [Example 5, (2S,4R)-1-((S)-2-(2-(2-(4-((3,5-Difluoro-4-((1R,3R)-2-(2-fluoro-2-methylpropyl)-3-methyl-2,3,4,9-tetrahydro-1H-pyrido[3,4-b]indol-1-yl)phenoxy)methyl)phenoxy)ethoxy)acetamido)-3,3-dimethylbutanoyl)-4-hydroxy-N-(4-(4-methylthiazol-5-yl)benzyl)pyrrolidine-2-carboxamide] | 0.8 nM
5 | Cc1ncsc1-c1ccc([C@H](C)NC(=O)[C@@H]2C[C@@H](O)CN2C(=O)[C@@H](NC(=O)COCCOCCCCCOc2cc(F)c([C@@H]3c4[nH]c5ccccc5c4C[C@@H](C)N3CC(F)(F)F)c(F)c2)C(C)(C)C)cc1 [Example 140, (2S,4R)-1-((S)-2-(2-(2-((5-(3,5-Difluoro-4-((1R,3R)-3-methyl-2-(2,2,2-trifluoroethyl)-2,3,4,9-tetrahydro-1H-pyrido[3,4-b]indol-1-yl)phenoxy)pentyl)oxy)ethoxy)acetamido)-3,3-dimethylbutanoyl)-4-hydroxy-N—((S)-1-(4-(4-methylthiazol-5-yl)phenyl)ethyl)pyrrolidine-2-carboxamide] | 0.5 nM
6 | Cc1ncsc1-c1ccc(CNC(=O)[C@@H]2C[C@@H](O)CN2C(=O)[C@@H](NC(=O)C(F)(F)OCCOCCCCOc2cc(F)c([C@@H]3c4[nH]c5ccccc5c4C[C@@H](C)N3CC(C)(C)F)c(F)c2)C(C)(C)C)cc1 [Example 121, (2S,4R)-1-((S)-2-(2-(2-(4-(3,5-Difluoro-4-((1R,3R)-2-(2-fluoro-2-methylpropyl)-3-methyl-2,3,4,9-tetrahydro-1H-pyrido[3,4-b]indol-1-yl)phenoxy)butoxy)ethoxy)-2,2-difluoroacetamido)-3,3-dimethylbutanoyl)-4-hydroxy-N-(4-(4-methylthiazol-5-yl)benzyl)pyrrolidine-2-carboxamide] | 0.7 nM
